Experimental data taken from patent US20030022821A1, “Bioactive peptides” (priority 1998, published 2003).
≈ marks a conversion by molar mass, not a printed value. Where two headings read alike, the source gives them in different places. Ends that are not written are not given here. Peptide text beside a SMILES is read from it. * marks the point of attachment. Fmoc = O=C(OCC1c2ccccc2-c2ccccc21)*; Acm = CC(=O)NC*

Columns and labels:
[1] = system: Staphylococcus aureus ATCC 25923; type: cell-based
Summary of the method: (§1)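 MIC values came from a standard microdilution method using mid-log bacteria at 2×10^6 CFU/ml in 1% Bacto Peptone water. HPLC confirmed actual peptide concentrations in solution, given possible adherence of the cationic peptides to plastic.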

[2] = system: Escherichia coli ATCC 25922; type: cell-based
Summary of the method: as §1

human red blood cells = assay: Hemolytic assay; type: cell-based
[3] = system: Meth A cells (murine sarcoma cell line); assay: Cytotoxicity on Meth A cells, MTT method
Protocol: Peptide solutions (0.1 ml) were added and the plates incubated at 37° C. for 30 minutes, 4 hours or 24 hours. The cytotoxicity was measured using the MTT method (Mosmann et al., J. Immunol. (1986) 136, 2348-2357).
Cells in the growth phase were harvested and washed in fresh medium and injected subcutaneously into the abdominal region of the mice.
The cytotoxic effect of the peptides on different murine and human tumor cells were measured using the MTT method (Mosmann et al., J. Immunol. (1986) 136, 2348-2357). MTT is a soluble tetrazolium salt yielding a yellow solution when prepared in media or salt solutions lacking phenol red. Dissolved MTT is converted to an insoluble purple formazan by cleavage of the tetrazolium ring by dehydrogenase enzymes. This water insoluble formazan can be solubilized using isopropanol or other solvents and the dissolved material is measured spectrophotometrically. The absorbance was measured as a function of concentration of converted dye.
Cells were maintained in […] medium containing 10% FBS, 1% L-glutamine and 0.1% penicillin and streptomycin. Cells to be used in the assay were grown to confluency, trypsinated and split to single cell suspension, counted and centrifuged at 1500 rpm for 10 min. […][…] of cell suspension was transferred to each well on a 96-well microtiter plate. The cells were stimulated by adding […] of various concentrations of peptides diluted with assay medium to each well. The final concentrations of peptide were for example: 5, 10, 20, 40, 60, 80, 100, and 200 mg/ml. […] As a negative control only medium was added to the cells, and as a positive control (100% killing) 1% triton X-100 was added. Following an incubation period of 4 h., 20 ml MTT dissolved in PBS at a concentration of 5 mg/ml was added to each well, and the plate was incubated further for 2 h. 130 ml of the supernatant were then removed and […] acid alcohol (0.04-0.1 N HCl in isopropanol) added to each well to dissolve the dark blue crystals. The plate was placed on a shaker for 1 h and read spectrophotometrically at 590 nm in a microtiterplate reader using the Softmaxâ program.

[4] = read-out: MethA IC 50, Table 7, peptide required to kill 50% of MethA cells

Compound	MIC S. aureus ([1]; ATCC 25923)	MIC E. coli ([2]; ATCC 25922)	% Hemolysis 10 μg/ml (human red blood cells; red cells of human)	% Hemolysis 100 μg/ml (human red blood cells; red cells of human)	MethA IC50 ([3]; 4 h)	MIC S. aureus ([1]; Table 11)	MIC E. coli ([2]; Table 11)	EC 50 (human red blood cells)	EC50 (human red blood cells)	EC50 (human red blood cells; red cells of human)	IC50 [3, 4]	killing of Meth A cells ([3]; 250 μg/ml at ½ hour and 4 hours)	EC50 ([3]; 4 h)	IC50 ([3]; 4 h)
CSCC[C@H](NC(=O)[C@H](CCCNC(=N)N)NC(=O)[C@H](Cc1c(S(=O)(=O)c2c(C)c(C)c3c(c2C)CCC(C)(C)O3)[nH]c2ccccc12)NC(=O)[C@H](CCC(N)=O)NC(=O)[C@H](Cc1c[nH]c2ccccc12)NC(=O)[C@H](CCCNC(=N)N)NC(=O)[C@H](CCCNC(=N)N)NC(=O)[C@H](CSCNC(C)=O)NC(=O)[C@H](CCCCN)NC(=O)[C@@H](N)Cc1ccccc1)C(=O)N[C@@H](CCCCN)C(=O)N[C@@H](CCCCN)C(=O)N[C@@H](CC(C)C)C(=O)NCC(=O)N[C@@H](C)C(=O)O [LFB PMC8]	10 µg/mL (≈ 4.29 µM)	18 µg/mL (≈ 7.72 µM)	3.6%	9.79%	150 µg/mL	–	–	–	–	–	–	–	–	–
RRWAWRMKK-OH [LFB 20-28 A4]	>100 µg/mL	>100 µg/mL	0%	1.68%	500 µg/mL	–	–	–	–	–	–	–	–	–
CSCC[C@H](NC(=O)[C@H](CCCNC(=N)N)NC(=O)[C@H](Cc1c[nH]c2ccccc12)NC(=O)[C@H](CCC(N)=O)NC(=O)[C@H](Cc1c(S(=O)(=O)c2c(C)c(C)c3c(c2C)CCC(C)(C)O3)[nH]c2ccccc12)NC(=O)[C@H](CCCNC(=N)N)NC(=O)[C@H](CCCNC(=N)N)NC(=O)[C@H](CSCNC(C)=O)NC(=O)[C@H](CCCCN)NC(=O)[C@@H](N)Cc1ccccc1)C(=O)N[C@@H](CCCCN)C(=O)N[C@@H](CCCCN)C(=O)N[C@@H](CC(C)C)C(=O)NCC(=O)N[C@@H](C)C(=O)O [LFB PMC6]	–	–	3.4%	6%	148 µg/mL	10 µg/mL (≈ 4.29 µM)	10 µg/mL (≈ 4.29 µM)	>1000 µg/mL	> 429 µM	–	–	–	–	–
PAWRKAFRWAWRMKKLAA-OH [LFB 14-31 A2,6, 10, 17F7R4]	2.5 µg/mL	10 µg/mL	–	–	–	–	–	–	–	> 440 µM	30.2 µM	–	–	–
CSCC[C@H](NC(=O)[C@H](CCCNC(=N)N)NC(=O)[C@H](C)NC(=O)[C@H](CCC(N)=O)NC(=O)[C@H](Cc1c[nH]c2ccccc12)NC(=O)[C@H](CCCNC(=N)N)NC(=O)[C@H](CCCNC(=N)N)NC(=O)[C@H](CSCNC(C)=O)NC(=O)[C@H](CCCCN)NC(=O)[C@H](Cc1ccccc1)NC(=O)OCC1c2ccccc2-c2ccccc21)C(=O)N[C@@H](CCCCN)C(=O)N[C@@H](CCCCN)C(=O)N[C@@H](CC(C)C)C(=O)NCC(=O)N[C@@H](C)C(=O)O [LFB A8 FMOC] (Fmoc-FKC(Acm)RRWQARMKKLGA-OH)	10 µg/mL (≈ 4.6 µM)	60 µg/mL (≈ 27.6 µM)	2.87%	7.79%	–	–	–	–	–	–	–	killed most of the cells	–	–
CSCC[C@H](NC(=O)[C@H](CCCNC(=N)N)NC(=O)[C@H](Cc1c[nH]c2ccccc12)NC(=O)[C@H](C)NC(=O)[C@H](Cc1c[nH]c2ccccc12)NC(=O)[C@H](CCCNC(=N)N)NC(=O)[C@H](CCCNC(=N)N)NC(=O)[C@H](C)NC(=O)[C@H](CCCCN)NC(=O)[C@H](Cc1ccccc1)NC(=O)[C@H](Cc1c[nH]c2ccccc12)NC(=O)[C@H](C)NC(=O)[C@@H]1CCCN1)C(=O)N[C@@H](CCCCN)C(=O)N[C@@H](CCCCN)C(=O)N[C@@H](CC(C)C)C(=O)N[C@@H](C)C(=O)N[C@@H](C)C(=O)O [LFB 14-31 A2,6, 10, 17]	2.5 µg/mL (≈ 1.1 µM)	20 µg/mL (≈ 8.8 µM)	–	–	–	–	–	–	–	> 440 µM	165 µM	–	165 µM	165 µM
CSCC[C@H](NC(=O)[C@H](CCCNC(=N)N)NC(=O)[C@H](C)NC(=O)[C@H](CCC(N)=O)NC(=O)[C@H](Cc1c[nH]c2ccccc12)NC(=O)[C@H](CCCNC(=N)N)NC(=O)[C@H](CCCNC(=N)N)NC(=O)[C@H](CSCNC(C)=O)NC(=O)[C@H](CCCCN)NC(=O)[C@@H](N)Cc1ccccc1)C(=O)N[C@@H](CCCCN)C(=O)N[C@@H](CCCCN)C(=O)N[C@@H](CC(C)C)C(=O)NCC(=O)N[C@@H](C)C(=O)O [LFB A8] (H-FKC(Acm)RRWQARMKKLGA-OH; N-terminus assumed)	>200 µg/mL	>200 µg/mL	2.8%	3.45%	500 µg/mL	–	–	–	–	–	–	–	–	–
